Results reported in ChEMBL document CHEMBL3507680, “University of Dundee, Gates Library screen for HepG2 cell viability”.

Experiment: Human HepG2 cell viability assay in 384 well format
Assay type: toxicity, cell-based
Parameters: dose 125 nL, time 70.5 hour; concentration not given beside the values
Details: HepG2 cells, read-out: Inhibition

Row | SMILES | cytotoxicity at 70.5 h [%]
1 | CN(Cc1ccccn1)C(=O)[C@]12COC[C@H]1CN(Cc1cnn(C)c1)C2 | -15.4
2 | Cn1cc(CN2CCCn3cnc(COCC4CC4)c3C2)cn1 | -12.6
3 | Cc1cnc(N2C[C@H]3C[C@H](C(=O)N(C)C)[C@@H](C2)O3)nc1 | -13.5
4 | CCOCC1CN(S(C)(=O)=O)Cc2cnn(C)c21 (centres undefined) | -11.1
5 | Cc1ccoc1C(=O)N1CCO[C@H]2[C@H](OCC3CCOCC3)CC[C@@H]21 | -15
6 | Fc1cnc(N2CCO[C@H]3CN(CC4CCC4)C[C@H]32)nc1 | -0.999
7 | CC(=O)N1CCn2c(COCc3csc(C)n3)cnc2C1C (centres undefined) | -20.1
8 | Cc1noc(C)c1CN1CCOC2(CCCN(c3nccs3)C2)C1 (centres undefined) | 29.8
9 | Cc1nc(N)cc(C2CCN2CCC(N)=O)n1 (centres undefined) | -3.73
10 | CCCn1nccc1-c1nccnc1CC1CCN(C(C)=O)CC1 | -2.55
11 | CC(=O)N1CCC(Cc2nccnc2-c2ccnn2C)CC1 | -2.74
12 | CC(C)=CCCC1(C)C=Cc2c(cc(C)n(CCC(=O)O)c2=O)O1 (centres undefined) | 4.03
13 | COCC(=O)N1CCCCC1c1nc(C)c2c(n1)N(C1CC1)C(=O)CC2 (centres undefined) | -3.68
14 | O=C(CO)N1CCC(CCc2ccnc(Nc3cnccn3)c2)CC1 | -2.09
15 | CN1CCC(Cc2cc(N(C)C)ncn2)C1 (centres undefined) | 5.25
16 | CN1CCC(CCc2ccnc(Nc3cnccn3)c2)CC1 | -4.49
17 | Cn1cc(C(=O)N2CCC(c3cc(CCO)n(C)n3)C2)cn1 (centres undefined) | -4.36
18 | O=C(O)[C@@H]1OCC(=O)N(Cc2cccc(Cl)c2)[C@@H]1c1ccccc1 | 5.58
19 | Cc1nccc(C2CN(S(=O)(=O)N(C)C)C2)n1 | -1.63
20 | CC(=O)NC1Cc2ccc(S(=O)(=O)NCCNc3ccccn3)cc2C1 (centres undefined) | -4.42
21 | CC(=O)Nc1nc(SCc2ccc3c(c2)OCO3)ns1 | -6.56
22 | Cc1ccnn1CCC(=O)N1CCCC[C@]2(C)NC(=O)CCC[C@H]12 | -7.45

Row | SMILES | cytotoxicity at 70.5 h [%]
23 | CC(C)(NC(=O)Cc1ccccc1F)C(=O)O | -4.89
24 | CNc1nccc(C2CCCCN2Cc2cnn3cccnc23)n1 (centres undefined) | -9.3
25 | O=C(O)c1ccccc1-c1ccc(CN2CCC(CO)C2)cn1 (centres undefined) | 15.8
26 | CN(C)S(=O)(=O)N1CCC(c2c(C(N)=O)sc3ccccc23)C1 (centres undefined) | -3.67
27 | Cc1nc(C2CCN2c2ncccn2)cc(N(C)C)n1 (centres undefined) | -8.86
28 | O=C(CC1CCN(c2cccnn2)CC1)NCCO | -6.47
29 | O=C(O)COc1ccc(CN2CCCC(Cc3cccnc3)C2)cc1 (centres undefined) | -9.55
30 | CC(C)C[C@H](N)COc1cccc(F)c1Oc1ccccc1 | 19.1
31 | Cc1cnc(CCNC(=O)C2CCN(S(=O)(=O)c3ccc(F)cc3)C2)s1 (centres undefined) | 17.8
32 | CC(=O)N1CCC(CCc2ccnc(NC(=O)c3ccccn3)c2)CC1 | 12
33 | O=C(O)c1ccccc1-c1cnc(CNC(=O)C2CCOCC2)nc1 | 14
34 | NC(=O)C1CN(c2ccc(F)cc2)CCN1 (centres undefined) | -2.98
35 | CC[C@@H]1N(CC2CC2)CCC[C@]12CCC(=O)N2CCOC | -9.87
36 | Cc1nc(COCc2cnc3n2CCN(C2CCC2)C3C)cs1 (centres undefined) | -12.4
37 | Cc1nc(COCc2cnc3n2CCN(CC2CCC2)C3C)cs1 (centres undefined) | -5.9
38 | Cc1ccc(CN2C[C@@H]3COC[C@@H](NS(C)(=O)=O)[C@@H]3C2)o1 | -18.3
39 | CC1c2ncc(CNC(=O)C3CC3)n2CCN1Cc1cnn(C)c1 (centres undefined) | -12
40 | c1ccc(OC[C@]23COC[C@H]2CN(c2ncccn2)C3)nc1 | -9.18
41 | c1cncc(OCc2nnn3c2CN(Cc2ccsc2)CCC3)c1 | -11.8
42 | O=C(NCc1ccccn1)[C@]12COC[C@H]1CN(C1CCC1)C2 | -10.3
43 | O[C@H]1CCN(Cc2ccoc2)[C@H]1Cc1cccnc1 | 30.5
44 | CN1CCN(C[C@@H]2OC[C@H]3CN(Cc4cccc(F)c4)CC[C@H]32)CC1 | 2.68
